Data on 20 compounds can be found in patent EP0180500A1, “Thieno and furo[2,3-c]pyrrole derivatives, process for their preparation and medicaments containing them” (LIPHA, LYONNAISE INDUSTRIELLE PHARMACEUTIQUE, priority 1984, dated 1986).

One series deals with acidité gastrique. Put plainly: Pylorus-ligated rats according to Shay (gastric antisecretory test). The conditions noted are these: Rattus norvegicus, ip, 4 h, read-out: DE 50 et limites à 95 %.
Series [1] addresses récepteurs histaminiques H2 (Cavia porcellus, UniProt P47747). Put plainly: Isolated guinea-pig atrium (histamine chronotropic effect, H2 blockade).
Method: Oreillette isolée de cobaye : Des cobayes albinos pesant entre 300 et 400 g sont assomés et saignés. Après ouverture du thorax, l'oreillette droite est rapidement dégagée et placée dans une cuve à organe isolé contenant 100 ml de Krebs (composition en g/1 : NaCl 6,9 - KCl 0,35 - CaCl2 0,28 - Mg SO4 0,14 - NaHCO3 2,09 - KH2 P04 0,16, glucose 2) maintenu à 32°C et fortement oxygéné (95 % 02, 5 % CO2).
L'oreillette est reliée à une jauge de contrainte isométrique, sous une tension de 1 g. Les battements spontanés sont enregistrés sur un enregistreur galvanométrique.
Après une période de stabilisation de 1 heure, des doses cumulées d'histamine sont ajoutées au milieu de survie, toutes les 5 minutes, ce qui occasionne une accélération des battements par stimulation des récepteurs de l'histamine qui, dans les tissus cardiaques sont de nature H2. L'histamine est ajoutée jusqu'à ce que le rythme de l'oreillette n'augmente plus (effet maximum). On peut alors tracer la courbe représentant la variation du rythme en fonction de la concentration d'histamine dans le bain. Après rinçages et repos de 30 minutes, la même expérimentation est reprise 30 minutes après avoir ajouté un antagoniste H2 dans le bain (composé de l'invention ou produit de référence) .
Chaque composé est ainsi testé à 3 concentrations géométriquement croissantes qui provoquent, en cas de blocage des récepteurs H2, un déplacement vers la droite des courbes concentration d'histamine/effet chronotrope. Pour chaque composé actif, nous déterminons un pA2, c'est à dire le cologarithme de la concentration du composé de l'essai pour laquelle il faut doubler la concentration d'histamine afin de retrouver un effet chronotrope donné. […] Un minimum de 3 oreillettes est utilisé pour chaque composé essayé.
Cette préparation permet aussi de se rendre compte de la nature, réversible ou non, de l'inhibition. Dans le premier cas, il sera toujours possible de déplacer l'antagoniste des récepteurs en pratiquant des rinçages répétés ou en utilisant une concentration plus forte d'histamine, ce qui se traduira par des courbes concentration d'histamine/ef- fet chronotrope, parallèles mais supexposables.
Par contre, dans le deuxième cas (inhibition difficilement réversible), l'antagonisme H2 ne peut être complètement levé, ni par rinçages ni par des concentrations élevées d'histamine, ce qui se traduit par des courbes dose/effet non superposables (l'effet chronotrope maximum est de plus en plus faible quand la concentration de l'antagoniste H2 croit).
For series [2], the system named is récepteurs histaminiques H2. Put plainly: Histamine-induced gastric hyperacidity in the anaesthetised rat.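 For all read-outs here: Read-out is the continuously recorded acidity of a saline perfusate flowing through the stomach and collected at the pylorus, with at least 3 rats per dose.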 The conditions noted are these: for DE 50 et limites à 95 %: dose reducing histamine-induced hyperacidity by 50 %, histamine infusion 25 µg/kg/minute, single i.v. dose, measured at peak action, 95 % limits in brackets; for Puissance relative Ranitidine = 1: relative potency from DE 50 I.V.
Method: Hyperacidité gastrique à l'histamine chez le rat anesthésié : (Black et Coll., Nature, 1972, 236, 385) : Des rats anesthésiés à l'éthylurétane reçoivent une perfusion continue d'histamine (25 µg/kg/minute)dans une veine jugulaire. L'estomac est continuellement perfusé par du sérum physiologique à 37°C, sous un débit constant de 3 ml/minute.
Une canule pylorique collecte le perfusat dont l'acidité est mesurée de façon continue. Chaque composé à examiner est administré par la voie intraveineuse (une seule dose par rat).L'inhibition de l'acidité est mesurée au délai correspondant au maximum d'action (délai variable d'un composé à un autre). Un minimum de 3 rats est utilisé pour chaque dose essayée. On détermine, pour chaque composé actif de l'invention, la dose diminuant de 50 % (DE 50), l'hyperacidité induite par l'histamine. On mesure en outre, pour les composés les plus actifs, la durée d'action résultant de l'injection intraveineuse d'une dose unique correspondant à la DE 50 arrondie.

The test system of the next series is souris. The conditions noted are these: in vivo, iv. The source says: (§1) Les composés de l'invention sont en général très peu toxiques.
In another series the test system is rats. The conditions noted are these: rat, in vivo, iv.
From the text: as §1

Chain of récepteurs histaminiques H2 (Cavia porcellus, UniProt P47747) (P47747 whole entry, the tested form may be a part): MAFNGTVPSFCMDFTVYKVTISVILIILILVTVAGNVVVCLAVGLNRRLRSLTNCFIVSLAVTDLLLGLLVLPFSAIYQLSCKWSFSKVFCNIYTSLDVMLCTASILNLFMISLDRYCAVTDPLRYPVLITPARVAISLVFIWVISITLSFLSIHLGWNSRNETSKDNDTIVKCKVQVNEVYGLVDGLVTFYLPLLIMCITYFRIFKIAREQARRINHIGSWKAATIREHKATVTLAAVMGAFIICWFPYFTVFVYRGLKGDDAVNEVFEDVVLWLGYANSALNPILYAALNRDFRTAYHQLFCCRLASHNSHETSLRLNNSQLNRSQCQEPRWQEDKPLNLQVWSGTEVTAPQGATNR
From the text for acidité gastrique: Quatre heures plus tard, les animaux sont sacrifiés et le contenu des estomacs prélevé pour mesure de l'acidité. Les composés sont injectés intrapéritonéalement, juste après la ligature du pylore. La dose abaissant l'acidité gastrique de 50 % (DE 50) est calculée pour chaque composé, par rapport à un lot non traité. Chaque composé est testé à 3 doses géamétriquement espacées. Chaque lot comprend 10 rats.

Regarding `CCN1Cc2cc(CSCCNC(=NC#N)NC)sc2C1` [Exemple 1], the ED50 in the series with acidité gastrique was 19 mg/kg. Moreover, the Kb in series [1] was 105 nM. Moreover, in series [2], the “DE 50 et limites à 95 %” value is 0,6 (0,25-1,5) mg/kg/I.V and the “Puissance relative Ranitidine = 1” value is reported as 0,15.

Turning to `COCCN1Cc2cc(CSCCNc3n[s+]([O-])nc3N)sc2C1` (centres unmarked) [Exemple 33, N-[ [ [Dihydro-5,6 (méthoxy-2 éthyl) -5-4H-thiéno [2,3-c]pyrolyl-2]méthylthio]-2 éthyl] oxyde-1 thiadiazole [1,2,5] diamine-3,4], in the series with acidité gastrique, the ED50 was 0.7 mg/kg. In series [1], this compound came in with a Kb of 49 nM. Further, in series [2], the “DE 50 et limites à 95 %” value is 0,2 (0,08-0,5) mg/kg/I.V and the “Puissance relative Ranitidine = 1” value is listed as 0,45.

As for `C#CCNc1n[s+]([O-])nc1NCCSCc1cc2c(s1)CN(CC)C2` (centres unmarked) [Exemple 21, N-[ [ (Ethyl-5 dihydro-5,6-4H-thiéno [2,3-c]pyrrolyl-2)méthylthio]-2 éthyl] N'-propargyl oxyde-1 thiadiazole [1,2,5] diamine-3,4], in the series on acidité gastrique, the ED50 was 32 mg/kg. In addition, the Kb in series [1] was 79.4 nM. For the same compound, in series [2], the “DE 50 et limites à 95 %” value was 0,6 (0,3 -1,2) mg/kg/I.V and the “Puissance relative Ranitidine = 1” value is listed as 0,15.

For `CCN1Cc2cc(CSCCNC(=C[N+](=O)[O-])NC)sc2C1` [Exemple 3, N-[ [ (Ethyl-5 dihydro-5,6-4H-thiéno [2,3-c]pyrrolyl-2)méthylthio]-2 éthyl]N'-méthyl nitro-2 éthènediamine-1,1], the ED50 with acidité gastrique stood at 8 mg/kg. In addition, the Kb in series [1] is 77.6 nM. In addition, in series [2], the “DE 50 et limites à 95 %” value is recorded as 0,3 (0,1 -0,9) mg/kg/I.V and the “Puissance relative Ranitidine = 1” value is given as 0,3.

For “N-[ [ (Isobutyl-5 dihydro-5,6-4H-thiéno [ 2,3-c ] pyrrolyl-2) méthylthio ]-2 éthyl J oxyde-1 thiadiazole [ 1,2,5 ] diamine-3,4 [Exemple 29]”, in series [2], the “DE 50 et limites à 95 %” value is recorded as 0,1 (0,04-0,25) mg/kg/I.V and the “Puissance relative Ranitidine = 1” value is on record as 0,9.

Turning to `CCCCCCN1Cc2cc(CSCCNc3n[s+]([O-])nc3N)sc2C1` (centres unmarked) [Exemple 30, N-[ [ (n.Hexyl-5 dihydro-5,5-4H-thiéno [2,3-c]pyrrolyl-2)méthylthio]-2 éthyl] oxyde-1 thiadiazole [1,2,5] diamine-3,4], the ED50 in the series on acidité gastrique came out at 0.5 mg/kg. The compound further registered a Kb in series [1] of 64.6 nM. In series [2], the “DE 50 et limites à 95 %” value was 0,2 (0,07-0,6) mg/kg/I.V and the “Puissance relative Ranitidine = 1” value is recorded as 0,45.

On to `CCCCN1Cc2cc(CSCCNc3n[s+]([O-])nc3N)sc2C1` (centres unmarked) [Exemple 28], for which, in the series with acidité gastrique, the ED50 was determined as 1 mg/kg. In addition, the Kb in series [1] stood at 42.7 nM. In series [2], the “DE 50 et limites à 95 %” value was 0,2 (0,08-0,5) mg/kg/I.V and the “Puissance relative Ranitidine = 1” value is listed as 0,45.

With `CCN1Cc2cc(CSCCC(N)=NS(N)(=O)=O)sc2C1` [Exemple 8, [ (Ethyl-5 dihydro-5,6-4H-thiéno [2,3-c]pyrrolyl-2)méthylthio]-3 N-sulfamoyl propanamidine], the ED50 in the series with acidité gastrique worked out at 18 mg/kg. In series [1], this compound had a Kb of 129 nM. For the same compound, in series [2], the “DE 50 et limites à 95 %” value is 0,5 (0,18-1,4) mg/kg/I.V and the “Puissance relative Ranitidine = 1” value is given as 0,18.

As to `CNC(=NC#N)NCCSCc1[nH]cnc1C` [Cimétidine, reference compound], in the series on acidité gastrique, the ED50 amounted to 42 mg/kg. For the same compound, the “DE 50 et limites à 95 %” value in series [2] is on record as 0,4 (0,18-0,9) mg/kg/I.V.

Regarding `CCCN1Cc2cc(CSCCNc3n[s+]([O-])nc3N)sc2C1` (centres unmarked) [Exemple 22], in the series on acidité gastrique, the ED50 was 0.5 mg/kg. In addition, in series [1], the Kb was 17 nM. The “DE 50 et limites à 95 %” value in series [2] is given as 0,05 (0,02-0,11) mg/kg/I.V. Also, the “Puissance relative Ranitidine = 1” value in series [2] is reported as 1,8. The effet toxique result in the series on souris and with rats was “aucun effet toxique” throughout.

Take `CCN1Cc2cc(CSCCNc3nc(N)nn3C)sc2C1` [Exemple 11]: in series [2], the “DE 50 et limites à 95 %” value is 0,4 (0,15-1) mg/kg/I.V and the “Puissance relative Ranitidine = 1” value is 0,22.

Regarding `CNC(=C[N+](=O)[O-])NCCSCc1ccc(CN(C)C)o1` [Ranitidine, reference compound], the ED50 in the series with acidité gastrique turned out to be 14 mg/kg. Besides, in series [1], the Kb was 36.3 nM. Moreover, in series [2], the “DE 50 et limites à 95 %” value is listed as 0,09 (0,05-0,17) mg/kg/I.V and the “Puissance relative Ranitidine = 1” value is given as 1.

For `CNC(=C[N+](=O)[O-])NCCCOc1cccc2c1CCN(C)C2` [Composé A, N-méthyl N' - [(méthyl-2 tétrahydro-1,2,3,4 isoqwnoléine-5 oxy)-3 propyl] nitro-2 éthène diamine-1,1, reference compound], the ED50 in the series with acidité gastrique was greater than 50 mg/kg. The Kb in series [1] is 1320 nM. Also, the “DE 50 et limites à 95 %” value in series [2] is reported as greater than 5 mg/kg/I.V.

Take `CCN1Cc2sc(CSCCNC(=C[N+](=O)[O-])NC)c(C)c2C1` [Exemple 19]: in the series with acidité gastrique, the ED50 was greater than 50 mg/kg. Further, in series [1], the Kb was 1260 nM. Further, the “DE 50 et limites à 95 %” value in series [2] is greater than 5 mg/kg/I.V.

For the compound `CCN1Cc2cc(CSCCNc3n[s+]([O-])nc3N)sc2C1` (centres unmarked) [Exemple 13, N-[ [ (Ethyl-5 dihydro-5,6-4H-thiéno [2,3-c]pyrrolyl-2)méthylthio]-2 éthyl] oxyde-1 thiadiazole [1,2,5,] diamine-3,4], the ED50 in the series on acidité gastrique worked out at 1.5 mg/kg. Moreover, the Kb in series [1] was 20.9 nM. In series [2], the “DE 50 et limites à 95 %” value is given as 0,03 (0,02-0,05) mg/kg/I.V and the “Puissance relative Ranitidine = 1” value is 3.

As to `CCCCCN1Cc2cc(CSCCNC(=C[N+](=O)[O-])NC)sc2C1` [Exemple 18, N-[ [ (Dihydro-5,6 n.pentyl-5-4H-thiéno [2,3-c]pyrrolyl-2)méthylthio]-2 éthyl]N'-méthyl nitro-2 éthène diamine-1,1], in the series on acidité gastrique, the ED50 came out at 15 mg/kg. Moreover, in series [1], the Kb is 89.1 nM. For the same compound, in series [2], the “DE 50 et limites à 95 %” value is listed as 0,5 (0,17-1,5) mg/kg/I.V and the “Puissance relative Ranitidine = 1” value is recorded as 0,18.

`CCN1Cc2cc(CSCCNc3n[s+]([O-])nc3NC)sc2C1` (centres unmarked) [Exemple 20, N-[ [ (Ethyl-5 dihydro-5,6-4H-thiéno [2,3-c]pyrrolyl-2)méthylthio]-2 éthyl]N'-méthyl oxyde-1 thiadiazole-[1,2,5] diamine-3,4]: in the series with acidité gastrique, the ED50 was 20 mg/kg. Moreover, the Kb in series [1] is 42.7 nM. In addition, in series [2], the “DE 50 et limites à 95 %” value is recorded as 0,1 (0,03-0,3) mg/kg/I.V and the “Puissance relative Ranitidine = 1” value is 0,9.

Turning to `CCCN1Cc2cc(CSCCNc3c(N)c(=O)c3=O)sc2C1` [Exemple 34, Amino-3 [ [ (dihydro-5,6 n.propyl-5-4H-thiéno [2,3-c]pyrrolyl-2)méthylthio]-2 éthylamino]-4 cyclobutène dione-1,2], the ED50 in the series with acidité gastrique amounted to 11 mg/kg. For the same compound, the Kb in series [1] was 63.1 nM. In series [2], the “DE 50 et limites à 95 %” value is on record as 0,25 (0,12-0,5) mg/kg/I.V and the “Puissance relative Ranitidine = 1” value is 0,36.

For `CCCCCN1Cc2cc(CSCCNc3n[s+]([O-])nc3N)sc2C1` (centres unmarked) [Exemple 31], the ED50 in the series with acidité gastrique worked out at 3.6 mg/kg. Besides, the Kb in series [1] stood at 30.9 nM. Moreover, in series [2], the “DE 50 et limites à 95 %” value is 0,15 (0,07-0,3) mg/kg/I.V and the “Puissance relative Ranitidine = 1” value is listed as 0,6.

For the compound “N-Cyano N' -[ [ (dihydro-5,6 isopropyl-5-4H-thiéno [2,3-c] pyrrolyl-2) méthylthio]-2 éthyl] N" méthyl guanidine [Exemple 6]”, in series [2], the “DE 50 et limites à 95 %” value is recorded as greater than 5 mg/kg/I.V.
